# Measured values from patent US10149818B2 (UCB PHARMA GMBH, priority 2010, dated 2018).
# Experiments:
# [1] = system: subjects with partial-onset seizures; test: PK-PD modeling of seizure frequency, Emax model, pooled clinical trials (Example 54); format: in vivo, human
# From the text: Objectives of the PK-PD analysis were to evaluate and describe the correlation between the LCM plasma concentration over time (PK parameter) and the reduction of daily seizures over time (PD parameter) based on the pooled data from the previous clinical human trials.
# The evaluation of PK-PD modeling was done based on the Emax model.
# The following Table 8 summarizes the PK-PD modeling results using the Emax model.
# The slope of the linear regression is equal to the mean daily number of seizures.
# Based on the relative difference of the individual slopes during Titration and Maintenance Phase vs Baseline slope and the approximated AUCT,ss,m, the PK-PD evaluation was performed using a linear model, the Emax model, and the Emax 100 model. […] Finally, the Emax model had the lowest weighted sum of squares and was therefore selected as the most appropriate PK-PD model to describe the data. […] The AUC50 is defined as the AUC[…],ss that is needed in individuals to achieve 50% of the maximum effect (decrease in seizure frequency).
# [2] = IR tablets twice daily; average distribution volume of 50 liters; cited from earlier work
structure (smiles),measurement,setting,value
"COC[C@@H](NC(C)=O)C(=O)NCc1ccccc1 [lacosamide, (R)-2-Acetamido-N-benzyl-3-methoxypropionamide]",decrease in partial seizure frequency at AUC50,[1]; 50% of the maximum effect,35%
same,decrease of seizures as % of the maximum effect,[1]; AUC of 67 μg/mL*h (mean dose 200 mg LCM bid in a typical subject),65%
same,"AUC,tau,ss corresponding to kd",[1]; Emax model,35 µg·h/mL
same,EC50,"[1]; Homo sapiens, Emax model, plasma concentration, read-out: kd, concentration for half of the maximum effect",2.92 µg/mL
same,decrease of seizures as % of the maximum effect,"[1]; human, in vivo",74%
same,"maximum dosage-normalized lacosamide steady state plasma levels (Cmax, ss, norm)",[2],40 to 43 ng/mL/mg
